In BindingDB's records for doi:10.1016/j.cbi.2005.11.002 (Laboratoire De Pharmacologie-Toxicologie Inra, 2006):

Molecular target: ATP-binding cassette sub-family C member 2 (Homo sapiens, UniProt Q92887)
Assay: TP_TRANSPORTER: inhibition of ATPase activity in Sf9 cells (membrane vesicles)

Sequence of ATP-binding cassette sub-family C member 2 (Q92887 whole entry): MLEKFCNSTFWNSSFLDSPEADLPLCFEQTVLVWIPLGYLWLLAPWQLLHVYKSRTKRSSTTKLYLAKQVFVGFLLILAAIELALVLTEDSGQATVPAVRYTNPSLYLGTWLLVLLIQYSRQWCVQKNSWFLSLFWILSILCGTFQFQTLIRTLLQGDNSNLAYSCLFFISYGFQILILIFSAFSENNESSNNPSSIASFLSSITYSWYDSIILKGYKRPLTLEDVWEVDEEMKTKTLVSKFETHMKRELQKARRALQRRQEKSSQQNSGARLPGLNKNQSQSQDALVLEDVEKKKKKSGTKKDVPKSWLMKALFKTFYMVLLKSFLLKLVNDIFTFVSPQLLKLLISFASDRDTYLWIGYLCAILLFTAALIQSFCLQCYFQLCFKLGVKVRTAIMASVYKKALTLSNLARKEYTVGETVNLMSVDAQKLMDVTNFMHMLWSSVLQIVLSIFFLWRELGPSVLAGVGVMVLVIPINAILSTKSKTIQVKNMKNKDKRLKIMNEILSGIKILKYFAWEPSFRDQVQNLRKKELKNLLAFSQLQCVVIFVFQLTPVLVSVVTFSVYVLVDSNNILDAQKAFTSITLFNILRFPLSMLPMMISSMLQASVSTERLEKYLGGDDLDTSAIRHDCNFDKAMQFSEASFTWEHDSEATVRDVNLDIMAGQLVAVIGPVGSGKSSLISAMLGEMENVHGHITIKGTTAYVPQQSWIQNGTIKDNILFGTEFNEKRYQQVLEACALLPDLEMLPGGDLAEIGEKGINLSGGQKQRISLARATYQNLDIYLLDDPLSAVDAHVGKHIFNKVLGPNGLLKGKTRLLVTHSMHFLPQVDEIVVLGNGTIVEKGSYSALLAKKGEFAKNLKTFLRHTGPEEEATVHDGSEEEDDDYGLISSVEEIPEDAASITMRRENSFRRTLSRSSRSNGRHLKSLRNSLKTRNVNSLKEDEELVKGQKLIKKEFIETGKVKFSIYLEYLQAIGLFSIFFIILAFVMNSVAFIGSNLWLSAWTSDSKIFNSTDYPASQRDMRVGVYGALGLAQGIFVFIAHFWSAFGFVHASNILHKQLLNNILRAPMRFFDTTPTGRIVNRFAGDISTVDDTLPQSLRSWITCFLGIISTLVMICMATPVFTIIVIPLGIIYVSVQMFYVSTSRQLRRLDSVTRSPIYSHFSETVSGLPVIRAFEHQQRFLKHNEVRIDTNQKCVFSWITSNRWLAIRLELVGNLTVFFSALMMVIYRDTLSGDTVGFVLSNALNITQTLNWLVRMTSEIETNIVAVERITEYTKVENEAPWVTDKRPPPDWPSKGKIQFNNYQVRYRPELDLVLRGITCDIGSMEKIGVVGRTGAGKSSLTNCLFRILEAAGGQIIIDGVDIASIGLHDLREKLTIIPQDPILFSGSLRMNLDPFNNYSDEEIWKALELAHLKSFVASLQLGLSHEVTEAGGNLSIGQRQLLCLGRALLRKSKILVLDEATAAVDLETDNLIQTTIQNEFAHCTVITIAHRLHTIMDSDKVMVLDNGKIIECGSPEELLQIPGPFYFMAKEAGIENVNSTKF

With CC[C@H](C)[C@H]1O[C@]2(CC[C@@H]1C)C[C@@H]1C[C@@H](C/C=C(\C)[C@@H](O[C@H]3C[C@H](OC)[C@@H](O[C@H]4C[C@H](OC)[C@@H](O)[C@H](C)O4)[C@H](C)O3)[C@@H](C)/C=C/C=C3\CO[C@@H]4[C@H](O)C(C)=C[C@@H](C(=O)O1)[C@]34O)O2 [ABAMECTIN] the IC50 was 18 µM.
